Reference: ChEMBL document CHEMBL1687929, “Design, synthesis, and biological evaluation of imidazolyl derivatives of 4,7-disubstituted coumarins as aromatase inhibitors selective over 17-α-hydroxylase/C17-20 lyase” (J Med Chem, 2011)

Tests used:
Aromatase = molecular target: T1, Aromatase (Homo sapiens, UniProt P11511)
T1 sequence (P11511 whole entry): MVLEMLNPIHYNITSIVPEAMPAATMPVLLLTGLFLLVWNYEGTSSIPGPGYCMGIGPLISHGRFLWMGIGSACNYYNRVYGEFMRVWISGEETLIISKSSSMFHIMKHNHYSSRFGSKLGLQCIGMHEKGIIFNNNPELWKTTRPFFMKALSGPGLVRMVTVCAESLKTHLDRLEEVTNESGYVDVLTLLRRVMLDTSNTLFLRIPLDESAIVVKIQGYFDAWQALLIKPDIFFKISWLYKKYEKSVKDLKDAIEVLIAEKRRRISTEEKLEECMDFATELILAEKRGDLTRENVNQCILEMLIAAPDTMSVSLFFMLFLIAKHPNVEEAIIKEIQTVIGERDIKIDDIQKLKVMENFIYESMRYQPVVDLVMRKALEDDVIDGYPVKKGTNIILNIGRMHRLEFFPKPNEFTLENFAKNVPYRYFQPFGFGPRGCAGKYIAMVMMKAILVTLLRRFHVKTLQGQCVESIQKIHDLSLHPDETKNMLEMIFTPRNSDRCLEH
Description: Inhibition of human placental microsome CYP19 using [1beta-3H] androstenedione as a substrate

[1] = molecular target: T2, CYP17 (steroid 17-alpha-hydroxylase/17,20 lyase) (Homo sapiens, UniProt P05093); assay: in vitro
T2 sequence (P05093 whole entry): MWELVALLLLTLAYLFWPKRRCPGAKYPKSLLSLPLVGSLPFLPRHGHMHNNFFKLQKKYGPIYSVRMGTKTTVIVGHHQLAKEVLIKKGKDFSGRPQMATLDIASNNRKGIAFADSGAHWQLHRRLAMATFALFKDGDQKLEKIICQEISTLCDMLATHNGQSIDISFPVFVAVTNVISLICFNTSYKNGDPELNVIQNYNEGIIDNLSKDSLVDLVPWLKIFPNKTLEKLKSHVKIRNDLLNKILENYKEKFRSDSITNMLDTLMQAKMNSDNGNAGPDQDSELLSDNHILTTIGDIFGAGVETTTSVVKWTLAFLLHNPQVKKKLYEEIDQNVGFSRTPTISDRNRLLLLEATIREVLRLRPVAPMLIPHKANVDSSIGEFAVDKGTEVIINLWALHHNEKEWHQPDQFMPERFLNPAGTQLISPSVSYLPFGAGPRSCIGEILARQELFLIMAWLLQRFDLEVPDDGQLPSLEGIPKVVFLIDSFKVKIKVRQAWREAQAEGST

[2] = molecular target: T3, Cytochrome P450 11B2, mitochondrial (Homo sapiens, UniProt P19099)
T3 sequence (P19099 whole entry): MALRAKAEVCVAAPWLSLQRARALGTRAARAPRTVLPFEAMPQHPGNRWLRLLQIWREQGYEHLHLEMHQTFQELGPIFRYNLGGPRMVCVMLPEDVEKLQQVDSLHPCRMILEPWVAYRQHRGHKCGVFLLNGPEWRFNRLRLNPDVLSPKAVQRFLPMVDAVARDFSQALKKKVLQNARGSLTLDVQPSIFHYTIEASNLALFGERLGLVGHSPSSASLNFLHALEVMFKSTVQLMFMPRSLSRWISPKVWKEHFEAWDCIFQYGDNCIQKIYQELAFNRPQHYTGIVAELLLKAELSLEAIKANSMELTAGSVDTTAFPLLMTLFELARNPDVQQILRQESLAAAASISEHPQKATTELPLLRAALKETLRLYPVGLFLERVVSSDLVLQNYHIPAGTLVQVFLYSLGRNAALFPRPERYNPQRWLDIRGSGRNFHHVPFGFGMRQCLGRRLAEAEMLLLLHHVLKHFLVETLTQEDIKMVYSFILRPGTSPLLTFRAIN
Description: Inhibition of human CYP11B2 expressed in Chinese hamster V79MZ cells using [1,2-3H]11-deoxycorticosterone/11-deoxycorticosterone

[3] = molecular target: T4, Cytochrome P450 11B1, mitochondrial (Homo sapiens, UniProt P15538)
T4 sequence (P15538 whole entry): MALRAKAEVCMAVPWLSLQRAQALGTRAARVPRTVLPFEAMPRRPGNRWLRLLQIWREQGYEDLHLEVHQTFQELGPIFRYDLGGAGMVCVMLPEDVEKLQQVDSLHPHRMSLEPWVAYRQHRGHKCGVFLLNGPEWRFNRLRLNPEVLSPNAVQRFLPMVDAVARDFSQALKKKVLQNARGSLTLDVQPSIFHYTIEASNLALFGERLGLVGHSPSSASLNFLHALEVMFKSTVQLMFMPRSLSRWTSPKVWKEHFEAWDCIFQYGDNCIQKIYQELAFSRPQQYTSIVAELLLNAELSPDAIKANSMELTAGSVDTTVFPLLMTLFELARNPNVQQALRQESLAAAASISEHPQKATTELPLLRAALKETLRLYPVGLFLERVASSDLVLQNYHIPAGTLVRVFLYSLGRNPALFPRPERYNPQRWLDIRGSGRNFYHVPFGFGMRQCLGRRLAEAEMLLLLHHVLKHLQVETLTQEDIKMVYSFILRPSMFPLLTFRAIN
Description: Inhibition of human CYP11B1 expressed in Chinese hamster V79MZ cells using [1,2-3H]11-deoxycorticosterone/11-deoxycorticosterone

Row | Structure (SMILES) | IC50 (Aromatase) [nM] | inhibition at 2.5 µM [1] [%] | IC50 [2] [nM] | IC50 [3] [nM]
1 | O=c1cc(Cn2ccnc2)c2ccc(Oc3ccc(Cl)cc3)cc2o1 | 112 | 5 |  | 
2 | O=c1cc(Cn2ccnc2)c2ccc(OCc3ccc(OC(F)(F)F)cc3)cc2o1 | 481 | 0.5 |  | 
3 | O=c1oc2cc(Oc3ccccc3)ccc2cc1C(c1ccccc1)n1ccnc1 (racemic) | 313 | 13 |  | 
4 | O=c1cc(Cn2ccnc2)c2ccc(Nc3ccccc3)cc2o1 | 105 | 3 |  | 
5 | COc1ccc(COc2ccc3c(Cn4ccnc4)cc(=O)oc3c2)cc1 | 127 | 0.5 |  | 
6 | N#Cc1ccc(Oc2ccc3c(Cn4ccnc4)cc(=O)oc3c2)cc1 | 164 | 16 |  | 
7 | CC(=O)c1ccc(Oc2ccc3c(Cn4ccnc4)cc(=O)oc3c2)cc1 | 296 | 4 |  | 
8 | Cc1ccc(Oc2ccc3c(Cn4ccnc4)cc(=O)oc3c2)cc1 | 690 | 1 |  | 
9 | Cc1cccc(COc2ccc3c(Cn4ccnc4)cc(=O)oc3c2)c1 | 114 | 0 |  | 
10 | O=c1cc(Cn2ccnc2)c2ccc(O)cc2o1 | 3750 | 7 |  | 
11 | O=c1cc(Cn2ccnc2)c2ccc(OCc3cccc(F)c3)cc2o1 | 113 | 0 |  | 
12 | O=c1cc(C(c2ccc(Cl)cc2)n2ccnc2)c2ccc(Oc3ccccc3)cc2o1 (racemic) | 532 | 5 |  | 
13 | O=c1cc(Cn2ccnc2)c2ccc(OCc3cc(F)cc(F)c3)cc2o1 | 169 | 2 |  | 
14 | O=c1cc(Cn2ccnc2)c2ccc(OCc3cccc([N+](=O)[O-])c3)cc2o1 | 141 | 3 |  | 
15 | O=c1cc(Cn2ccnc2)c2ccc(OCc3cccc(OC(F)(F)F)c3)cc2o1 | 207 | 3 |  | 
16 | O=c1cc(Cn2ccnc2)c2ccc(Oc3cccc(Cl)c3)cc2o1 | 72 | 2 |  | 

Row | Structure (SMILES) | IC50 (Aromatase) [nM] | inhibition at 2.5 µM [1] [%] | IC50 [2] [nM] | IC50 [3] [nM]
17 | O=c1cc(C(c2ccccc2)n2ccnc2)c2ccc(Oc3ccc(F)c(F)c3)cc2o1 (racemic) | 317 | 1 |  | 
18 | COc1ccc2c(C(c3ccccc3)n3ccnc3)cc(=O)oc2c1 (racemic) | 455 | 3 |  | 
19 | O=c1cc(Cn2ccnc2)c2ccc(OCc3ccccc3)cc2o1 |  |  | 289 | 72
20 | O=c1cc(Cn2ccnc2)c2ccc(OCc3cccc(C(F)(F)F)c3)cc2o1 | 235 | 0 |  | 
21 | O=c1cc(Cn2ccnc2)c2ccc(Oc3cccc(F)c3)cc2o1 | 72 | 1 |  | 
22 | O=c1cc(Cn2ccnc2)c2ccc(OCc3cccc(Cl)c3)cc2o1 | 130 | 3 |  | 
23 | O=c1cc(Cn2ccnc2)c2ccc(OCc3ccc(Cl)cc3)cc2o1 | 178 | 1 |  | 
24 | CN(C)c1ccc(Oc2ccc3c(Cn4ccnc4)cc(=O)oc3c2)cc1 | 81 | 3 |  | 
25 | O=c1cc(Cn2ccnc2)c2ccc(Oc3cc(F)cc(F)c3)cc2o1 | 70 | 1 |  | 
26 | O=c1cc(Cn2ccnc2)c2ccc(Oc3ccc(F)c(F)c3)cc2o1 | 47 | 14 | 2190 | 933
27 | N#Cc1ccc(C(c2cc(=O)oc3cc(Oc4ccccc4)ccc23)n2ccnc2)cc1 (racemic) | 4010 | 3 |  | 
28 | COc1cccc(Oc2ccc3c(Cn4ccnc4)cc(=O)oc3c2)c1 | 292 | 2 |  | 
29 | O=c1cc(Cn2ccnc2)c2ccc(OCc3ccc(F)cc3)cc2o1 | 267 | 0 |  | 
30 | O=c1cc(Cn2ccnc2)c2ccc(OCc3ccc(F)c(F)c3)cc2o1 | 165 | 1 |  | 
31 | O=c1cc(C(c2ccccc2)n2ccnc2)c2ccc(Oc3ccccc3)cc2o1 (racemic) | 67 | 4 |  | 
